Tested on: T1, laccase from C. lunata MLK46 (MLK46 laccase)
T1 construct: gene EC 1.10.3.2; secreted native enzyme purified from culture filtrate (ammonium sulphate, DEAE-Sepharose)
Assay: spectrophotometric oxidation assay, Lineweaver-Burk
Assay type: biochemical, Curvularia lunata
Details: free enzyme, O2 as electron acceptor, pH and temperature of kinetics not clearly stated ("stated conditions")

Compound | Km | Km (A420, standard assay at 50 °C)
COc1cc(-c2ccc(N)c(OC)c2)ccc1N [o-dianisidine] | 2.7 mM | –
Oc1c(Cl)cccc1Cl [2,6-dichlorophenol] | 5.55 mM | –
CCn1c(=NN=c2sc3cc(S(=O)(=O)O)ccc3n2CC)sc2cc(S(=O)(=O)O)ccc21 [ABTS, 2,2’-azino-bis(3-ethylbenzothiazoline-6-sulfonic acid)] | – | 4.17 mM
COc1ccccc1O [guaiacol] | 10.3 mM | –

Source: article PMC12024561, “Production, Biochemical Characterization, and Application of Laccase from Halophilic Curvularia lunata MLK46 Recovered from Mangrove Rhizosphere” (Biology, 2025)
